Source: ChEMBL document CHEMBL1154345, “Discovery of tricyclic 5,6-dihydro-1H-pyridin-2-ones as novel, potent, and orally bioavailable inhibitors of HCV NS5B polymerase” (Bioorg Med Chem Lett, 2009)
pEC50: −log10 of the molar value.

What was measured:
Hepatitis C virus [1] = assay: microbe, parasite or virus in culture; type: functional, organism-based, Hepacivirus hominis, subtype 1a, Huh-lunet
Description: Antiviral activity against HCV-1a infected in human Huh-lunet cells after 4 days by luciferase based replicon assay

Hepatitis C virus [2] = assay: microbe, parasite or virus in culture; type: functional, organism-based, Hepacivirus hominis, genotype 1b, Huh-luc/neo-ET
Description: Antiviral activity against HCV-1b infected human Huh-luc/neo-ET replicon cells after 72 hrs by luciferase based replicon assay

[3] = Cytotoxicity against human HuH7 cells assessed as GAPDH release; type: cell-based, Huh-7
[4] = Oral bioavailability in cynomolgus monkey at 0.5 mg/kg; type: ADME, organism-based, Macaca fascicularis; details: in vivo
Cynomolgus monkey [5] = assay: AUC (0 to infinity) in cynomolgus monkey at 0.5 mg/kg, po; type: ADME, organism-based, Macaca fascicularis, Plasma; parameters: time infinity, dose 0.5 mg/kg, route oral; details: in vivo
Cynomolgus monkey [6] = assay: AUC (0 to infinity) in cynomolgus monkey at 0.5 mg/kg, iv; type: ADME, organism-based, Macaca fascicularis, Plasma; parameters: time infinity, dose 0.5 mg/kg, route intravenous; details: in vivo
[7] = Clearance in cynomolgus monkey at 0.5 mg/kg, iv; type: ADME, organism-based, Macaca fascicularis; parameters: dose 0.5 mg/kg, route intravenous; details: in vivo
in vitro [8] = details: human, t1/2
in vitro [9] = details: rhesus monkey
Description: (§2) Metabolic stability in monkey liver microsomes assessed as half life at 5 uM

in vitro [10] = details: rhesus monkey, Stability
Description: (§3) Metabolic stability in monkey liver microsomes assessed as compound remaining after 60 mins at 5 uM

[11] = (§1) Oral bioavailability in cynomolgus monkey at 1 mg/kg; type: ADME, organism-based, Macaca fascicularis; details: in vivo
[12] = Clearance in cynomolgus monkey at 1 mg/kg, iv; type: ADME, organism-based, Macaca fascicularis; parameters: dose 1 mg/kg, route intravenous; details: in vivo
[13] = rhesus monkey, microsomes, 5 µM
Description: as §2

[14] = rhesus monkey, microsomes, 1 h, 5 µM
Description: as §3

Cynomolgus monkey [15] = details: in vivo, po, 1 mg/kg
Cynomolgus monkey [16] = details: in vivo, iv, 1 mg/kg
in vitro [17] = details: human
Description: Metabolic stability in human liver microsomes assessed as compound remaining after 60 mins at 1 uM

in vitro [18] = details: human, Caco-2
Description: Apparent permeability from apical side to basolateral side of human Caco-2 cells at 10 uM after 3 hrs

physchem = details: aqueous medium, pH 7.5
Description: Aqueous solubility at pH 7.5

Cynomolgus monkey [19] = assay: as §1; type: ADME, organism-based, Macaca fascicularis; details: in vivo
[20] = Hepatitis C virus, subtype 1a, Huh-lunet, 96 h
[21] = Hepatitis C virus, genotype 1b, Huh-luc/neo-ET, 72 h

pEC50 (Hepatitis C virus [1]; [20])	pEC50 (Hepatitis C virus [2]; [21])	bioavailability [4] [%]	AUC (Cynomolgus monkey [5]) [ng·h/mL]	AUC (Cynomolgus monkey [6]) [ng·h/mL]	clearance [7] [mL/min/kg]	half-life at 1 µM (in vitro [8]; microsomes) [h]	half-life at 5 µM (in vitro [9]; microsomes) [h]	remaining at 1 h, 5 µM (in vitro [10]; microsomes) [%]	bioavailability [11] [%]	clearance [12] [mL/min/kg]	Stability [14] [%]	AUC (Cynomolgus monkey [15]) [ng·h/mL]	AUC (Cynomolgus monkey [16]) [ng·h/mL]	half-life at 1 µM (in vitro [8]; liver microsomes) [h]	remaining at 1 h, 1 µM (in vitro [17]; liver microsomes) [%]	Papp A→B at 3 h, 10 µM (in vitro [18]) [×10⁻⁶ cm/s]	solubility (physchem) [µM]	remaining at 1 h, 1 µM (in vitro [17]; microsomes) [%]	Compound	CC50 [3] [nM]	further results
5.27	6.26	12	163	1390	6.5	0.333	> 1	58											CS(=O)(=O)Nc1ccc2c(c1)S(=O)(=O)N=C(C1=C(O)[C@H]3[C@@H]4CC[C@@H](C4)[C@H]3N(Cc3ccc(F)cc3)C1=O)N2	> 33000	
7.43	8.15								45	0.37	95	20300	44800	> 1	100	1.05	> 100		CS(=O)(=O)Nc1ccc2c(c1)S(=O)(=O)N=C(C1=C(O)[C@@H]3[C@H]4CC[C@H](C4)[C@@H]3N(Cc3ccc(F)c(F)c3)C1=O)N2		t1/2 [13]: 1 h
7.18	8.22								3	6.3		90	2650	> 1	100	0.08	> 100		CS(=O)(=O)Nc1ccc2c(c1)S(=O)(=O)N=C(C1=C(O)[C@@H]3[C@@H]([C@H]4CC[C@@H]3O4)N(Cc3ccc(F)cc3)C1=O)N2	> 1000	half-life at 5 µM (in vitro [9]; liver microsomes): > 1 h; remaining at 1 h, 5 µM (in vitro [10]; liver microsomes): 100%
5.60	6.57	26	409	1570	5.7	> 1	> 1	95										75	CS(=O)(=O)Nc1ccc2c(c1)S(=O)(=O)N=C(C1=C(O)[C@H]3[C@H]4CC[C@H](C4)[C@H]3N(Cc3ccc(F)cc3)C1=O)N2	> 33000	
						0.567	> 1	91				30700	63900						CS(=O)(=O)Nc1ccc2c(c1)S(=O)(=O)N=C(C1=C(O)C3C4CCC(C4)C3N(Cc3ccc(F)cc3)C1=O)N2 (racemic; 2a)	> 1000	pEC50 (Hepatitis C virus [1]; huh-lunet): 6.48; pEC50 (Hepatitis C virus [2]; huh-luc/neo-et): 8.30; F (Cynomolgus monkey [19]): 48%
											92	1350	5500					73	CS(=O)(=O)Nc1ccc2c(c1)S(=O)(=O)N=C(C1=C(O)C3C4CCC(C4)C3N(Cc3ccc(F)cc3)C1=O)N2 (racemic; 2b)		pEC50 (Hepatitis C virus [1]; huh-lunet): 7.04; pEC50 (Hepatitis C virus [2]; huh-luc/neo-et): 8.70; F (Cynomolgus monkey [19]): 25%
